Measured values: patent publication US20180105876A1, “MEDICATION DOSING REPORT” (BAYCREST TECHNOLOGY PTY LTD, priority 2015, published 2018)

Test system: patients suffering major depressive disorder
Experiment: open-label desvenlafaxine treatment of MDD outpatients, HDRS assessed every two weeks
Format: in vivo, human
Method: A […] clinical trial was performed to examine the clinical validity of a five gene, combinatorial, pharmacogenetic-based antidepressant dosing support tool for desvenlafaxine dosing. Participants were self-identified Caucasian outpatients aged 18 years and older with a principal DSM-5 diagnosis of MDD (semi-structured psychiatrist assessment) and a 17-item Hamilton Depression Rating Scale (HDRS) score greater than or equal to 18. Participants with other active psychiatric diagnoses were excluded, specifically those suffering with adjustment disorder with depressed mood, persistent depressive disorder, and subjects with a principal clinical diagnosis of a personality disorder. Additional exclusion criteria included pregnancy or breastfeeding, hepatic or renal impairments, co-prescription of known UGT1A1 or ABCB1 inducers/inhibitors (e.g. St John's Wort, valproic acid), regular grapefruit juice consumption, and current smoking which may influence appropriate dosing. A total of 131 individuals were screened for eligibility criteria. […] All participants received desvenlafaxine in an open-label manner during the 10-week study period. At baseline, age, sex, duration of the current depressive episode, and number of depressive episodes was recorded. […] Symptom severity was assessed at baseline and every two-weeks thereafter during the study period with the HDRS. […]

`CN(C)CC(c1ccc(O)cc1)C1(O)CCCCC1` (centres unmarked) [desvenlafaxine] was tested. Which “participants achieved symptom remission (HDRS score of 7 or less by week 10)” value (after 10 weeks of desvenlafaxine treatment, 119 MDD participants, dose adjusted every two weeks) did it give?
Its value is 80%.

And the “greater than 50% reduction in HDRS from baseline” value (among the 24 participants who did not achieve symptom remission by week 10)?
The value was 42%.
